According to PubChem BioAssay AID256 (DTP/NCI, 2004):
Inconclusive results and toxic doses are left out. Rule for the calls: active = survival T/C of 150% or more; inactive = T/C below 125% in these data.

System: CD2F1 mice, L1210 leukemia ip, survival T/C
Experiment: NCI In Vivo Anticancer Drug Screen. Data for tumor model L1210 Leukemia (intraperitoneal) in CD2F1 (CDF1) mice
Conditions: higher = longer survival
How it was run: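 Antitumor effect is scored in animals hosting a serially transplanted tumor. Values compare compound-dosed animals against vehicle-only controls as a simple quotient.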

[1] = endpoint: mean survival time, dose: 25.0 mg/kg/injection, schedule: Q04DX003 (ip), vehicle: Klucel (hydroxypropylcellulose) (HPC)
[2] = endpoint: mean survival time, dose: 50.0 mg/kg/injection, schedule: Q04DX003 (ip), vehicle: Klucel (hydroxypropylcellulose) (HPC)
[3] = endpoint: mean survival time, dose: 100.0 mg/kg/injection, schedule: Q04DX003 (ip), vehicle: Klucel (hydroxypropylcellulose) (HPC)
[4] = endpoint: mean survival time, dose: 200.0 mg/kg/injection, schedule: Q04DX003 (ip), vehicle: Klucel (hydroxypropylcellulose) (HPC)
[5] = endpoint: mean survival time, dose: 100.0 mg/kg/injection, schedule: Q04DX003 (ip), vehicle: saline with Tween-80
[6] = endpoint: mean survival time, dose: 25.0 mg/kg/injection, schedule: Q04DX003 (ip), vehicle: saline with Tween-80
[7] = endpoint: mean survival time, dose: 50.0 mg/kg/injection, schedule: Q04DX003 (ip), vehicle: saline with Tween-80
[8] = endpoint: mean survival time, dose: 25.0 mg/kg/injection, schedule: Q01DX009 (ip), vehicle: saline with Tween-80
[9] = endpoint: mean survival time, dose: 50.0 mg/kg/injection, schedule: Q01DX009 (ip), vehicle: saline with Tween-80
[10] = endpoint: mean survival time, dose: 100.0 mg/kg/injection, schedule: Q01DX009 (ip), vehicle: saline with Tween-80
[11] = endpoint: mean survival time, dose: 100.0 mg/kg/injection, schedule: Q01DX001 (ip), vehicle: saline
[12] = endpoint: mean survival time, dose: 200.0 mg/kg/injection, schedule: Q01DX001 (ip), vehicle: saline
[13] = endpoint: mean survival time, dose: 400.0 mg/kg/injection, schedule: Q01DX001 (ip), vehicle: saline

Measured: T/C

O=C(NCCF)NC1CCSc2ccccc21 (stereo unspecified)
inactive: endpoint: mean survival time, dose: 75.0 mg/kg/injection, schedule: Q01DX001 (ip), vehicle: other 101 % of control | endpoint: mean survival time, dose: 150.0 mg/kg/injection, schedule: Q01DX001 (ip), vehicle: other 103 % of control

COc1ccc(N=C(C)C2C(=O)c3ccccc3C2=O)cc1
inactive: endpoint: median survival time, dose: 50.0 mg/kg/injection, schedule: Q01DX005 (ip), vehicle: DMSO 101 % of control | endpoint: median survival time, dose: 100.0 mg/kg/injection, schedule: Q01DX005 (ip), vehicle: DMSO 101 % of control | endpoint: median survival time, dose: 200.0 mg/kg/injection, schedule: Q01DX005 (ip), vehicle: DMSO 103 % of control | endpoint: median survival time, dose: 400.0 mg/kg/injection, schedule: Q01DX005 (ip), vehicle: DMSO 103 % of control | endpoint: median survival time, dose: 800.0 mg/kg/injection, schedule: Q01DX005 (ip), vehicle: DMSO 101 % of control

Cc1ncc2c(n1)NC(c1ccc(Cl)cc1Cl)NC2 (stereo unspecified)
inactive: endpoint: mean survival time, dose: 75.0 mg/kg/injection, schedule: Q01DX001 (ip), vehicle: saline 101 % of control | endpoint: mean survival time, dose: 150.0 mg/kg/injection, schedule: Q01DX001 (ip), vehicle: saline 105 % of control | endpoint: mean survival time, dose: 300.0 mg/kg/injection, schedule: Q01DX001 (ip), vehicle: saline 101 % of control

CN(C)c1ccc(N=Nc2ccc(CI)cc2)cc1
inactive: [1] 89 % of control | [2] 112 % of control | [3] 96 % of control | [4] 93 % of control

Nc1ncc(C(=O)c2ccccc2)cc1[N+](=O)[O-]
inactive: [5] 96 % of control | endpoint: mean survival time, dose: 200.0 mg/kg/injection, schedule: Q04DX003 (ip), vehicle: saline with Tween-80 96 % of control

CCOC(=O)NCC(Cl)(Cl)Cl
inactive: endpoint: mean survival time, dose: 37.5 mg/kg/injection, schedule: Q01DX009 (ip), vehicle: saline with Tween-80 98 % of control | endpoint: mean survival time, dose: 75.0 mg/kg/injection, schedule: Q01DX009 (ip), vehicle: saline with Tween-80 98 % of control | endpoint: mean survival time, dose: 150.0 mg/kg/injection, schedule: Q01DX009 (ip), vehicle: saline with Tween-80 102 % of control

O=C(O)c1ccc(Cl)cc1Nc1ccc(Cl)cc1
inactive: endpoint: mean survival time, dose: 12.5 mg/kg/injection, schedule: Q04DX003 (ip), vehicle: saline with Tween-80 97 % of control | [6] 100 % of control | [7] 107 % of control | [5] 98 % of control

O=c1[nH]c(=O)n(C2OC(CO)C(O)C2O)nc1SCc1ccccc1 (stereo unspecified)
inactive: endpoint: mean survival time, dose: 12.5 mg/kg/injection, schedule: Q01DX005 (ip), vehicle: distilled water + Tween-80 100 % of control | endpoint: mean survival time, dose: 25.0 mg/kg/injection, schedule: Q01DX005 (ip), vehicle: distilled water + Tween-80 97 % of control | endpoint: mean survival time, dose: 50.0 mg/kg/injection, schedule: Q01DX005 (ip), vehicle: distilled water + Tween-80 101 % of control | endpoint: mean survival time, dose: 100.0 mg/kg/injection, schedule: Q01DX005 (ip), vehicle: distilled water + Tween-80 97 % of control | endpoint: mean survival time, dose: 200.0 mg/kg/injection, schedule: Q01DX005 (ip), vehicle: distilled water + Tween-80 97 % of control

CCCCC/C=C/C/C=C\CCCCCCCC1=C(O)C(=O)C(OC)=C(OC)C1=O
inactive: endpoint: mean survival time, dose: 6.25 mg/kg/injection, schedule: Q01DX009 (ip), vehicle: saline with Tween-80 120 % of control | endpoint: mean survival time, dose: 12.5 mg/kg/injection, schedule: Q01DX009 (ip), vehicle: saline with Tween-80 106 % of control | [8] 98 % of control | [9] 102 % of control | [10] 102 % of control | endpoint: mean survival time, dose: 200.0 mg/kg/injection, schedule: Q01DX009 (ip), vehicle: saline with Tween-80 106 % of control

CC(C)(C)CC(C)(C)c1ccc(OCCOc2ccc(NS(=O)(=O)c3ccc(N)c([N+](=O)[O-])c3)cc2)cc1
inactive: endpoint: mean survival time, dose: 50.0 mg/kg/injection, schedule: Q01DX009 (ip), vehicle: Klucel (hydroxypropylcellulose) (HPC) 101 % of control | endpoint: mean survival time, dose: 100.0 mg/kg/injection, schedule: Q01DX009 (ip), vehicle: Klucel (hydroxypropylcellulose) (HPC) 101 % of control | endpoint: mean survival time, dose: 200.0 mg/kg/injection, schedule: Q01DX009 (ip), vehicle: Klucel (hydroxypropylcellulose) (HPC) 98 % of control

O=C1NC(c2ccccc2)C2/C=C\CCCCC12 (stereo unspecified)
inactive: endpoint: mean survival time, dose: 75.0 mg/kg/injection, schedule: Q04DX002 (ip), vehicle: saline with Tween-80 93 % of control | endpoint: mean survival time, dose: 150.0 mg/kg/injection, schedule: Q04DX002 (ip), vehicle: saline with Tween-80 96 % of control | endpoint: mean survival time, dose: 300.0 mg/kg/injection, schedule: Q04DX002 (ip), vehicle: saline with Tween-80 93 % of control

CC12CCC(=O)C=C1CCC1C2CCC2(C)C(C(=O)Cn3c(=O)[nH]cc(F)c3=O)CCC12 (stereo unspecified)
inactive: endpoint: mean survival time, dose: 12.5 mg/kg/injection, schedule: Q04DX003 (ip), vehicle: Klucel (hydroxypropylcellulose) (HPC) 94 % of control | [1] 94 % of control | [2] 97 % of control | [3] 91 % of control | [4] 95 % of control

CC(C)=C(c1ccccc1)c1c(N)ncnc1Cl
inactive: [11] 97 % of control | [12] 95 % of control | [13] 100 % of control

C[CH2][Sn]([CH2]C)([O]S(=O)(=O)CC12CCC(CC1=O)C2(C)C)[O]S(=O)(=O)CC12CCC(CC1=O)C2(C)C
inactive: endpoint: mean survival time, dose: 1.56 mg/kg/injection, schedule: Q01DX009 (ip), vehicle: saline 94 % of control | endpoint: mean survival time, dose: 3.12 mg/kg/injection, schedule: Q01DX009 (ip), vehicle: saline 94 % of control | endpoint: mean survival time, dose: 6.25 mg/kg/injection, schedule: Q01DX009 (ip), vehicle: saline 103 % of control | endpoint: mean survival time, dose: 12.5 mg/kg/injection, schedule: Q01DX009 (ip), vehicle: saline 113 % of control | endpoint: mean survival time, dose: 25.0 mg/kg/injection, schedule: Q01DX009 (ip), vehicle: saline 111 % of control

[Cl][Pt+2][Cl].[NH-]c1ccc(CC(=O)O)cc1[NH-]
inactive: endpoint: mean survival time, dose: 3.13 mg/kg/injection, schedule: Q04DX003 (ip), vehicle: water 103 % of control | endpoint: mean survival time, dose: 6.25 mg/kg/injection, schedule: Q04DX003 (ip), vehicle: water 105 % of control | endpoint: mean survival time, dose: 12.5 mg/kg/injection, schedule: Q04DX003 (ip), vehicle: water 101 % of control | endpoint: mean survival time, dose: 25.0 mg/kg/injection, schedule: Q04DX003 (ip), vehicle: water 116 % of control

CCC/C(=N\Nc1ccc([N+](=O)[O-])cc1[N+](=O)[O-])c1ccccc1
inactive: [8] 94 % of control | [6] 104 % of control | [9] 105 % of control | [7] 115 % of control | [10] 94 % of control | [5] 98 % of control

COC(=O)C(C)NC(=O)C(CO)NC(=O)c1cnc2ccccc2n1 (stereo unspecified)
inactive: [11] 98 % of control | [12] 102 % of control | [13] 94 % of control

Cn1c(=O)[nH]cc(C2OC(CO)C(O)C2O)c1=O (stereo unspecified)
inactive: endpoint: median survival time, dose: 12.5 mg/kg/injection, schedule: Q01DX005 (ip), vehicle: saline 103 % of control | endpoint: median survival time, dose: 25.0 mg/kg/injection, schedule: Q01DX005 (ip), vehicle: saline 100 % of control | endpoint: median survival time, dose: 50.0 mg/kg/injection, schedule: Q01DX005 (ip), vehicle: saline 92 % of control | endpoint: median survival time, dose: 100.0 mg/kg/injection, schedule: Q01DX005 (ip), vehicle: saline 100 % of control | endpoint: median survival time, dose: 200.0 mg/kg/injection, schedule: Q01DX005 (ip), vehicle: saline 107 % of control

CCCCCCCCCCCCCCCCN(C)C
inactive: [6] 94 % of control | [7] 95 % of control

c1ccc(Cc2ccccn2)nc1
inactive: endpoint: mean survival time, dose: 100.0 mg/kg/injection, schedule: Q01DX009 (ip), vehicle: saline 110 % of control | endpoint: mean survival time, dose: 200.0 mg/kg/injection, schedule: Q01DX009 (ip), vehicle: saline 101 % of control | endpoint: mean survival time, dose: 400.0 mg/kg/injection, schedule: Q01DX009 (ip), vehicle: saline 90 % of control
